Experimental data: patent US12679878B2, “CRF2 receptor agonists and their use in therapy” (SANOFI, priority 2020, dated 2026)
Where two headings read alike, the source gives them in different places. Starred links: 1 amine or outer side, 2 acyl side, 3 side chain; linkers in the order of their positions; H or OH if unused. Non-standard residues stand in square brackets, D forms with d. Residues, ends and D or L forms follow the SMILES beside them. Groups on a side chain read outwards from the residue. No end group written: not given here. *: point of attachment. C18 diacid = O=C(O)CCCCCCCCCCCCCCCCC(=O)*; γGlu = O=C(O)[C@H](CCC(=O)[*:2])N[*:1]; AEEA = NCCOCCOCC(=O)O; Aib = CC(C)(N)C(=O)O

T1: human CRF2α receptor (Homo sapiens, UniProt Q13324)
T1 construct: expressed in transfected cells; host or cells: TeloHEAC
T1 sequence (Q13324 1-411): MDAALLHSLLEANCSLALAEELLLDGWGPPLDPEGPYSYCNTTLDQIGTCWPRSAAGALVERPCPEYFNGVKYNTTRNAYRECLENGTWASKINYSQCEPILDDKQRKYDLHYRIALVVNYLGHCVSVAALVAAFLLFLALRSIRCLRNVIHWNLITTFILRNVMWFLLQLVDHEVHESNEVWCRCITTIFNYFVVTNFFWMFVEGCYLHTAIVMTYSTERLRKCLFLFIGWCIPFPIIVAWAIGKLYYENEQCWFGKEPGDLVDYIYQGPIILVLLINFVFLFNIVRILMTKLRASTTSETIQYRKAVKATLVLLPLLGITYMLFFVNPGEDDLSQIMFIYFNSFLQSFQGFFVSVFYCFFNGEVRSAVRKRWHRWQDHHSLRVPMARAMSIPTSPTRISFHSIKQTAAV

T2: endogenous human CRF2 (NCI-H82 cells) (human, UniProt Q13324 20-411)
T2 sequence (looked up): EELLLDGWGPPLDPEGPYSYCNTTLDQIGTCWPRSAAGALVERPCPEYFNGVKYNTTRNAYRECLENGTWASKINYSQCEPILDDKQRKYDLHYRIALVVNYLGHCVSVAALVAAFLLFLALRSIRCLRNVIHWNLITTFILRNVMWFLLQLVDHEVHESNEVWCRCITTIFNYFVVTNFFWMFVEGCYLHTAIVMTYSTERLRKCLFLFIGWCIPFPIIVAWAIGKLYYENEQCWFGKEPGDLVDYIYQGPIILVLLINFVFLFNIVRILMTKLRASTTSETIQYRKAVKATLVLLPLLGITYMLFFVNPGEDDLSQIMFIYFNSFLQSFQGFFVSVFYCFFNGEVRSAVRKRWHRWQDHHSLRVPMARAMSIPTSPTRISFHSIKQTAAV

B1: peptide of SEQ ID NO: 143 (peptide)
peptide: FTLSLDVPTKIK([AEEA-AEEA-γGlu-C18 diacid])QILLKQEKQKKQRQKAKTNKQILERV-NH2
modifications: N-terminus assumed
SMILES: CC[C@H](C)[C@H](NC(=O)[C@H](CCC(N)=O)NC(=O)[C@H](CCCCN)NC(=O)[C@H](CC(N)=O)NC(=O)[C@@H](NC(=O)[C@H](CCCCN)NC(=O)[C@H](C)NC(=O)[C@H](CCCCN)NC(=O)[C@H](CCC(N)=O)NC(=O)[C@H](CCCNC(=N)N)NC(=O)[C@H](CCC(N)=O)NC(=O)[C@H](CCCCN)NC(=O)[C@H](CCCCN)NC(=O)[C@H](CCC(N)=O)NC(=O)[C@H](CCCCN)NC(=O)[C@H](CCC(=O)O)NC(=O)[C@H](CCC(N)=O)NC(=O)[C@H](CCCCN)NC(=O)[C@H](CC(C)C)NC(=O)[C@H](CC(C)C)NC(=O)[C@@H](NC(=O)[C@H](CCC(N)=O)NC(=O)[C@H](CCCCNC(=O)COCCOCCNC(=O)COCCOCCNC(=O)CC[C@H](NC(=O)CCCCCCCCCCCCCCCCC(=O)O)C(=O)O)NC(=O)[C@@H](NC(=O)[C@H](CCCCN)NC(=O)[C@@H](NC(=O)[C@@H]1CCCN1C(=O)[C@@H](NC(=O)[C@H](CC(=O)O)NC(=O)[C@H](CC(C)C)NC(=O)[C@H](CO)NC(=O)[C@H](CC(C)C)NC(=O)[C@@H](NC(=O)[C@@H](N)Cc1ccccc1)[C@@H](C)O)C(C)C)[C@@H](C)O)[C@@H](C)CC)[C@@H](C)CC)[C@@H](C)O)C(=O)N[C@@H](CC(C)C)C(=O)N[C@@H](CCC(=O)O)C(=O)N[C@@H](CCCNC(=N)N)C(=O)N[C@H](C(N)=O)C(C)C
B2: peptide of SEQ ID NO: 141 (peptide)
peptide: IVLSLD[dV]PIKLK([AEEA-AEEA-γGlu-C18 diacid])QILLKQARQK[Aib]QRAQAEKNKRILERV-NH2
modifications: N-terminus assumed
SMILES: CC[C@H](C)[C@H](N)C(=O)N[C@H](C(=O)N[C@@H](CC(C)C)C(=O)N[C@@H](CO)C(=O)N[C@@H](CC(C)C)C(=O)N[C@@H](CC(=O)O)C(=O)N[C@@H](C(=O)N1CCC[C@H]1C(=O)N[C@H](C(=O)N[C@@H](CCCCN)C(=O)N[C@@H](CC(C)C)C(=O)N[C@@H](CCCCNC(=O)COCCOCCNC(=O)COCCOCCNC(=O)CC[C@H](NC(=O)CCCCCCCCCCCCCCCCC(=O)O)C(=O)O)C(=O)N[C@@H](CCC(N)=O)C(=O)N[C@H](C(=O)N[C@@H](CC(C)C)C(=O)N[C@@H](CC(C)C)C(=O)N[C@@H](CCCCN)C(=O)N[C@@H](CCC(N)=O)C(=O)N[C@@H](C)C(=O)N[C@@H](CCCNC(=N)N)C(=O)N[C@@H](CCC(N)=O)C(=O)N[C@@H](CCCCN)C(=O)NC(C)(C)C(=O)N[C@@H](CCC(N)=O)C(=O)N[C@@H](CCCNC(=N)N)C(=O)N[C@@H](C)C(=O)N[C@@H](CCC(N)=O)C(=O)N[C@@H](C)C(=O)N[C@@H](CCC(=O)O)C(=O)N[C@@H](CCCCN)C(=O)N[C@@H](CC(N)=O)C(=O)N[C@@H](CCCCN)C(=O)N[C@@H](CCCNC(=N)N)C(=O)N[C@H](C(=O)N[C@@H](CC(C)C)C(=O)N[C@@H](CCC(=O)O)C(=O)N[C@@H](CCCNC(=N)N)C(=O)N[C@H](C(N)=O)C(C)C)[C@@H](C)CC)[C@@H](C)CC)[C@@H](C)CC)C(C)C)C(C)C

Columns and labels:
[1] = Physical stability, Thioflavin T fibrillation assay (Example 14); assay type: physicochemical; settings: 3 mg/ml, 37° C. shaking
How it was run: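 Compounds at 3 mg/ml final in buffer were stressed at 37° C by repeated cycles of 10 s shaking at 960 rpm and 50 s rest. ThT fluorescence was read every 20 minutes in eight replicates, with fluorescence increase and lag time indicating fibrillation tendency.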

[2] = Solubility in buffer systems by UPLC-UV (Example 13); assay type: physicochemical; settings: pH 4.5, Solubility in Buffer B [mg/ml]
How it was run: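 The supernatant was diluted 1:10 and quantified by UPLC-UV peak area against a reference standard curve, correcting for sequence-based extinction coefficients.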

[3] = Chemical stability, purity loss by UPLC-UV after 28 days at 40° C. vs 5° C., pH 4.5 acetate buffer (Example 12); assay type: physicochemical; settings: 28 days 40° C. vs 5° C.; pH 4.5, 20 mM acetate buffer; 300 μM
Experimental: The chemical stability of the compounds was assessed by storing the compounds under various conditions and then determining the loss of purity by UPLC-UV.
Prior to measuring the chemical stability of a batch of test compound, the purity of the compound was determined through UPLC/MS. For stability testing the target concentration was 300 μM pure compound. Therefore, solutions from solid samples were prepared in a pH 4.5, 20 mM acetate buffer system with a concentration of 300 μM compound based on the previously determined % purity:
At the starting point, UPLC-UV was performed by injection of 2 μl of the undiluted sample. Aliquots were then stored for 28 days at temperatures of 5 and 40° C. […] Then 2 μl samples of the undiluted supernatant were analysed with UPLC-UV. The chemical stability was calculated by the equation: [(purity after 28 days at 5° C.)−(purity after 28 days at 40° C.)]/(purity after 28 days at 5° C.)]×100%. The purity was calculated as: [(peak area compound)/(total peak area)]×100%.

[4] = Physical stability, dynamic light scattering assay (Example 15); assay type: physicochemical; settings: Buffer D (20 mM phosphate, pH 7.4)
Experimental: The physical stability of the compounds was also assessed using a dynamic light scattering assay.
In the present study, the physical stability of test compounds was assessed by determining the apparent hydrodynamic radius (Rh), the scattering intensity (I) and mass contribution (M) after synthesis (0 weeks) and after storage for 4 weeks at 40° C.
For each solution of test compound, the hydrodynamic radius Rh and the diffusion constant D (related via the Stokes-Einstein equation) were determined as an average over triplicates. Both parameters were determined at different compound concentrations (e.g., Rh1 and D1: 1 mg/ml and Rh5 and D5: 5 mg/ml, Rh10 and D10: 10 mg/mL) in the same buffer system. The difference of these parameters between low and high peptide concentration is a surrogate for the DLS interaction parameter kD. […] In addition, the hydrodynamic radius Rh and the corresponding Scattering Intensity (%) were determined as an average over duplicates. The target concentration was 300 μM. Therefore, solutions from solid samples were prepared in a buffer system with a concentration of 300 μM compound based on the previously determined % purity.
DLS measurements were performed on a DynaPro Plate Reader I (Wyatt Technology, Santa Barbara, CA, US) with an 837 nm laser light source at a scattering angle of 150°. The data were collected and processed with Dynamics V 7.8.1.3 or 7.8.2.18 software provided by Wyatt Technology.
Hydrodynamic radii were determined with non-negatively constrained least squares (NNLS) methods using DYNALS algorithms with regularization fit. […] Samples were tempered over 1 hour at +25° C. and visually inspected before analysis.
Samples were mixed with the aid of a pipet tip. Measurements were performed in 5 replicates. […] The plate was centrifuged for 2 minutes at 600 rcf. After removing the sealing, the samples were measured at +25° C.

human CRF2α receptor = biological target: T1, human CRF2α receptor; assay: cAMP agonism at human CRF2 α receptor in TeloHEAC cells (Example 7); assay type: cell-based; settings: cAMP HTRF, TeloHEAC cells stably expressing human CRF2 α
How it was run: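 Steps: thaw and wash cells; suspend in 1×HBSS, 20 mM HEPES, 0 or 0.1% HSA, 2 mM IBMX; add compound, 30 min RT; lyse with HTRF reagents, 1 h; read 665/620 nm. EC50 calculated, E% versus 1000 nM UCN2.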

rat CRF2R α receptor [5] = assay: cAMP agonism at rat CRF2R α receptor in A7R5 rat aortic smooth muscle cells (Example 8); assay type: cell-based; settings: cAMP HTRF, A7R5 rat aortic smooth muscle cell line, 0% HSA
How it was run: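 Thawed cryopreserved A7R5 cells in HBSS/20 mM HEPES (0 or 0.1% HSA) with 2 mM IBMX, 2000 cells/well, were exposed to compound for 30 min at room temperature. cAMP was read by HTRF (665/620 nm ratio) after 1 h with lysis reagents. Activity was normalised to 1000 nM urocortin 2 as 100%, and EC50 was taken as the concentration giving 50% of maximal activation.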

[6] = biological target: T2, endogenous human CRF2 (NCI-H82 cells); assay: cell-based or functional assay
rat CRF2R α receptor [7] = biological target: rat CRF2R α receptor (rat, UniProt P47866 20-411); assay: cell-based or functional assay
[8] = Buffer A: 100 mM acetate buffer, pH 4.5
[9] = Buffer B: 100 mM acetate buffer, pH 4.5, 2.7 mg/ml m-cresol

Molecule | Increase in FI (fluorescence intensity) [1, 8] | Lag time [1, 8] | Increase in FI (fluorescence intensity) [1, 9] | Lag time [1, 9] | solubility at 1 h [2] | Relative purity loss [%] [3] | Apparent Rh [nm] 0 weeks ([4]; 0 weeks) | Scattering Intensity (I) [%] 0 weeks ([4]; 0 weeks) | Apparent Rh [nm] 4 weeks ([4]; 4 weeks at 40° C.) | Scattering Intensity (I) [%] 4 weeks ([4]; 4 weeks at 40° C.) | EC50 (human CRF2α receptor; 0% HSA, read-out: EC50 [nM], 0% HSA) | EC50 (human CRF2α receptor; 0.1% HSA, read-out: EC50 [nM], 0.1% HSA) | EC50 (rat CRF2R α receptor [5]) | EC50 [nM] (cAMP, NCI-H82 cells) [6] | EC50 [nM], 0% HSA (cAMP, A7R5 cells) (rat CRF2R α receptor [7])
CC[C@H](C)[C@H](N)C(=O)N[C@H](C(=O)N[C@@H](CC(C)C)C(=O)N[C@@H](CO)C(=O)N[C@@H](CC(C)C)C(=O)N[C@@H](CC(=O)O)C(=O)N[C@@H](C(=O)N1CCC[C@H]1C(=O)N[C@H](C(=O)N[C@@H](CCCCN)C(=O)N[C@@H](CC(C)C)C(=O)N[C@@H](CCCCNC(=O)COCCOCCNC(=O)COCCOCCNC(=O)CC[C@H](NC(=O)CCCCCCCCCCCCCCCCC(=O)O)C(=O)O)C(=O)N[C@@H](CCC(N)=O)C(=O)N[C@H](C(=O)N[C@@H](CC(C)C)C(=O)N[C@@H](CC(C)C)C(=O)N[C@@H](CCCCN)C(=O)N[C@@H](CCC(N)=O)C(=O)N[C@@H](C)C(=O)N[C@@H](CCCNC(=N)N)C(=O)N[C@@H](CCC(N)=O)C(=O)N[C@@H](CCCCN)C(=O)NC(C)(C)C(=O)N[C@@H](CCC(N)=O)C(=O)N[C@@H](CCCNC(=N)N)C(=O)N[C@@H](C)C(=O)N[C@@H](CCC(N)=O)C(=O)N[C@@H](C)C(=O)N[C@@H](CCC(=O)O)C(=O)N[C@@H](CCCCN)C(=O)N[C@@H](CC(N)=O)C(=O)N[C@@H](CCCCN)C(=O)N[C@@H](CCCNC(=N)N)C(=O)N[C@H](C(=O)N[C@@H](CC(C)C)C(=O)N[C@@H](CCC(=O)O)C(=O)N[C@@H](CCCNC(=N)N)C(=O)N[C@H](C(N)=O)C(C)C)[C@@H](C)CC)[C@@H](C)CC)[C@@H](C)CC)C(C)C)C(C)C [compound 141] (H-IVLSLD[dV]PIKLK([AEEA-AEEA-γGlu-C18 diacid])QILLKQARQK[Aib]QRAQAEKNKRILERV-NH2) | No | >45 h | No | >45 h | > 8300 µg/mL | 2.90% | 2.19 ± 0.18 nm | 100 ± 1% | 2.34 ± 0.22 nm | 98 ± 2% | 0.03 nM | 0.97 nM | 0.05 nM |  | 
B1 |  |  |  |  |  |  |  |  |  |  |  |  |  | 93 nM | 
B2 |  |  |  |  |  |  |  |  |  |  |  |  |  | 12 nM | 0.05 nM
